The text below walks through data of ChEMBL document CHEMBL1156094, “Imidazopyridine-5,6,7,8-tetrahydro-8-quinolinamine derivatives with potent activity against HIV-1” (Bioorg Med Chem Lett, 2009).

As usually defined, the clearance is a measure of how efficiently the substance is removed, as volume per time. Usually half-life stands for how long it takes for the measured level to halve. Broadly, the IC50 is the point on the concentration scale where inhibition reaches its midpoint. The bioavailability is the share of a dose that reaches the circulation, judged against a reference dose that is usually intravenous. In general, CC50 refers to the concentration giving 50% cytotoxicity.

Series [1] in a line: Clearance in rat at 1 mg/kg, iv. Type of series: ADME, organism-based. Also on record: dose 1 mg/kg, route intravenous. Conditions: in vivo.
Series [2] concerns Human immunodeficiency virus 1. Nature of the series: Antiviral activity against HIV1 3B infected human HOS cells expressing human CXCR4 and CD4 assessed as inhibition of viral infection in presence of human serum albumin and alpha-acid glycoprotein by luciferase reporter gene assay. It is filed as functional. Also on record: unit not given here. A general note: Reporter assays use an easily measured gene product as a stand-in for the process of interest.

Series [3] in a line: Half life in rat at 1 mg/kg, iv. It is filed as ADME, organism-based. Also on record: dose 1 mg/kg, route intravenous. The note with it: in vivo.
Series [4] concerns Human immunodeficiency virus 1. Nature of the series: Antiviral activity against HIV1 3B infected human HOS cells expressing human CXCR4 and CD4 assessed as inhibition of viral infection by luciferase reporter gene assay. Type of series: functional, organism-based. The note with it: Human immunodeficiency virus 1, 3B.
The nature of series [5]: Oral bioavailability in rat at 3 mg/kg. It is filed as ADME, organism-based. The note with it: in vivo.
Series [6] addresses C-X-C chemokine receptor type 4 (Homo sapiens) (UniProt P61073). Nature of the series: Antagonist activity at CXCR4. It is filed as functional.
A short description of series [7]: Cytotoxicity against human HOS cells. It is filed as cell-based.
A short description of series [8]: Volume of distribution at steady state in rat at 1 mg/kg, iv. It is filed as ADME, organism-based. Further details: dose 1 mg/kg, route intravenous. Conditions: in vivo, read-out: Vdss.
The nature of series [9]: Oral bioavailability in cynomolgus monkey at 3 mg/kg. Type of series: ADME, organism-based, Macaca fascicularis. The note with it: in vivo.
Series [10] can be described thus: Volume of distribution at steady state in Beagle dog at 1 mg/kg, iv. Further details: dose 1 mg/kg, route intravenous. Conditions: in vivo, read-out: Vdss. Type of series: ADME, organism-based, Canis lupus familiaris.
Series [11] can be described thus: Volume of distribution at steady state in cynomolgus monkey at 1 mg/kg, iv. It is filed as ADME, organism-based, Macaca fascicularis. Further details: dose 1 mg/kg, route intravenous. Conditions: in vivo, read-out: Vdss.
A short description of series [12]: Half life in Beagle dog at 1 mg/kg, iv. Type of series: ADME, organism-based, Canis lupus familiaris. Also on record: dose 1 mg/kg, route intravenous. The note with it: in vivo.
The nature of series [13]: Half life in cynomolgus monkey at 1 mg/kg, iv. The note with it: in vivo. Further details: dose 1 mg/kg, route intravenous. It is filed as ADME, organism-based, Macaca fascicularis.
The nature of series [14]: Clearance in cynomolgus monkey at 1 mg/kg, iv. It is filed as ADME, organism-based, Macaca fascicularis. Further details: dose 1 mg/kg, route intravenous. Conditions: in vivo.
The nature of series [15]: Clearance in Beagle dog at 1 mg/kg, iv. Type of series: ADME, organism-based, Canis lupus familiaris. Further details: dose 1 mg/kg, route intravenous. Conditions: in vivo.
A short description of series [16]: Oral bioavailability in Beagle dog at 3 mg/kg. Type of series: ADME, organism-based, Canis lupus familiaris. The note with it: in vivo.

Active and inactive are the calls of the source. No cut-off for these calls is given here. A value given as a limit tells only on which side of the number the result lay.

Chain of C-X-C chemokine receptor type 4 (Homo sapiens) (P61073 whole entry): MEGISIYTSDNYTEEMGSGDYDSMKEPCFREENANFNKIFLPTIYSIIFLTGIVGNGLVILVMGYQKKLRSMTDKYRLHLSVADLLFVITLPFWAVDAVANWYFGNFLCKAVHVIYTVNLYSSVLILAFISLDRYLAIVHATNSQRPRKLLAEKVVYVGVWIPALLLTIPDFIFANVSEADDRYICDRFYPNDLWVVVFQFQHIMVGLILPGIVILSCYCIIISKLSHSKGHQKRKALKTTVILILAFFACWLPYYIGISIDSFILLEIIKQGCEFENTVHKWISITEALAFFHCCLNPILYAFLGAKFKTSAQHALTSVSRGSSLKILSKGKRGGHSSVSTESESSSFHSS

As for `CN(C)C1CCN(c2cccc3nc(CN(C)[C@H]4CCCc5cccnc54)cn23)CC1`, in series [1], the clearance was determined as 5.7 mL/min/kg. The Activity in series [2] was found to be 8. This compound also gave a half-life in [3] of 10 h. In addition, the IC50 in [4] stood at 4 nM. In series [5], this compound gave a bioavailability of 7%. Besides, the result in series [6] was Active. In addition, in series [7], the CC50 was 3400 nM. Further, the Vd in [8] was 5.1 L/kg.
`CCCN(Cc1cn2c(N3CCN(C)CC3)cccc2n1)[C@H]1CCCc2cccnc21` displayed a clearance in series [1] of 8.9 mL/min/kg. Besides, the Activity in series [2] is on record as 5. Further, in [3], the half-life is 10.7 h. In addition, in series [4], the IC50 came out at 3 nM. For the same compound, the bioavailability in series [5] was determined as 41%. Moreover, the outcome in series [6] was Active. The CC50 in series [7] came to 6700 nM. The Vd in [8] is 6.2 L/kg.
Turning to `CN1CCN(c2cccc3nc(CN(CC(F)(F)F)C4CCCc5cccnc54)cn23)CC1` (racemic), the IC50 in [4] was 127 nM. In series [6], the outcome was Active. For the same compound, the CC50 in series [7] is > 5000 nM.
In the case of `CN(Cc1cn2c(N3CCOCC3)cccc2n1)C1CCCc2cccnc21` (racemic), the IC50 in series [4] amounted to 690 nM. Besides, the outcome in series [6] was Active. Moreover, the CC50 in [7] is > 10000 nM.
The corresponding values for `CN1CCN(c2cccn3cc(CN(C)[C@H]4CCCc5cccnc54)nc23)CC1` are 640 nM, “Active” and > 5000 nM.
As for `CCN1CCN(c2cccc3nc(CN(C)[C@H]4CCCc5cccnc54)cn23)CC1`, in series [2], the Activity came out at 10. In addition, the IC50 in series [4] amounted to 4 nM. Moreover, in [6], the outcome was Active. In addition, the midpoint of cytotoxicity in series [7], the CC50, lay at 3900 nM.
As to `CN1CCN(c2cccc3nc(CN(C)[C@H]4CCCc5cccnc54)cn23)CC1`, the bioavailability in [9] was 10%; in series [5], 11%; in series [16], 13%. For the same compound, the Vd is 8.5 L/kg in [10], 3.7 L/kg in series [11] and 4.9 L/kg in [8]. In addition, the clearance stood at 14 mL/min/kg in series [1], 6 mL/min/kg in series [14] and 18 mL/min/kg in [15]. The values for the half-life in series [12], in series [13] and in series [3] were 7.6 h, 10 h and 5.5 h, respectively. In addition, the Activity in series [2] is on record as 1.5. The IC50 in [4] was 2 nM. In addition, the outcome in [6] was Active. Also, in series [7], the CC50 came out at 4500 nM.
In turn, `CC(C)N1CCN(c2cccc3nc(CN(C)[C@H]4CCCc5cccnc54)cn23)CC1` yielded a clearance in series [1] of 31 mL/min/kg. Further, the Activity in series [2] amounted to 3.3. Further, the half-life in series [3] was 3.9 h. For the same compound, the IC50 in series [4] is 3 nM. In series [5], the bioavailability was found to be 29%. Moreover, the result in [6] was Active. For the same compound, the CC50 in [7] amounted to 7100 nM. Also, in [8], the Vd stood at 10.6 L/kg.
Consider `CCCCN(Cc1cn2c(N3CCN(C)CC3)cccc2n1)[C@H]1CCCc2cccnc21`, for which the 50% inhibitory concentration (IC50) in [4] was 3 nM. Further, the result in series [6] was Active. The compound further showed a CC50 in series [7] of 5300 nM.
As for `CN1CCN(c2cccc3nc(CN(C)[C@@H]4CCCc5cccnc54)cn23)CC1`, in [4], the IC50 came out at 84 nM. The outcome in series [6] was Active. In series [7], this compound yielded a CC50 of 12600 nM.
Consider `CN1CCC(N(C)c2cccc3nc(CN(C)[C@H]4CCCc5cccnc54)cn23)C1` (some centres undefined), for which the Activity in [2] turned out to be 1.3. Besides, the IC50 in series [4] was 30 nM. Also, the result in series [6] was Active. Besides, in series [7], the CC50 stood at 10800 nM.
The corresponding values for `CCN(Cc1cn2c(N3CCN(C)CC3)cccc2n1)[C@H]1CCCc2cccnc21` are 1.5, 2 nM, “Active” and 8100 nM.
Turning to `CC(C)N(Cc1cn2c(N3CCN(C)CC3)cccc2n1)[C@H]1CCCc2cccnc21`, the Activity in series [2] was 5. Besides, in [4], the IC50 is 5 nM. For the same compound, in [6], the outcome was Active. In [7], the 50% cytotoxic concentration (CC50) is 8900 nM.
Compound `CN1CCN(c2cccc3nc(CN(CC4CC4)[C@H]4CCCc5cccnc54)cn23)CC1` showed a clearance in series [1] of 9.9 mL/min/kg. Besides, the Activity in [2] was determined as 6. The compound further showed a half-life in series [3] of 8.8 h. Besides, the IC50 in series [4] is 4 nM. Also, the bioavailability in series [5] was determined as 31%. For the same compound, the result in [6] was Active. The compound further yielded a 50% cytotoxic concentration (CC50) in series [7] of 8000 nM. The Vd in [8] is 6 L/kg.
As for `CN1CCN(c2cccc3nc(CN(Cc4ccccc4)[C@H]4CCCc5cccnc54)cn23)CC1`, the IC50 in series [4] turned out to be 28 nM. The result in series [6] was Active. Also, the CC50 in [7] is 9300 nM.
`CN(C)[C@H]1CCN(c2cccc3nc(CN(C)[C@H]4CCCc5cccnc54)cn23)C1` showed a clearance in [1] of 9.5 mL/min/kg. Besides, the Activity in series [2] is 3. In [3], this compound gave a half-life of 7.9 h. Also, in series [4], the IC50 stood at 8 nM. For the same compound, the bioavailability in [5] stood at 2%. In series [6], the outcome was Active. This compound also registered a 50% cytotoxic concentration (CC50) in series [7] of 2100 nM. Further, the Vd in series [8] came to 4.5 L/kg.
For `CN1CCN(c2cccc3nc(CN(C)[C@H]4CCCc5cccnc54)[nH]c23)CC1`, the Activity in series [2] was 80. The outcome in [6] was Active. For the same compound, the CC50 in series [7] was > 5000 nM.
On to `CN(C)[C@@H]1CCN(c2cccc3nc(CN(C)[C@H]4CCCc5cccnc54)cn23)C1`, for which the Activity in series [2] came out at 5. Besides, in series [4], the half-inhibitory concentration (IC50) stood at 43 nM. Besides, in series [6], the result was Active. It took 4900 nM to reach half-maximal cytotoxicity in series [7] (CC50).
Consider `CN(Cc1cn2c(N3CCC(N)CC3)cccc2n1)[C@H]1CCCc2cccnc21`, for which, in [4], the IC50 was found to be 4 nM. Also, the outcome in [6] was Active. The compound also gave a CC50 in series [7] of 6300 nM.
The corresponding values for `CC(C)CN(Cc1cn2c(N3CCN(C)CC3)cccc2n1)[C@H]1CCCc2cccnc21` are 23 nM, “Active” and 20000 nM.
The corresponding values for `CN(Cc1cn2c(N3CCN4CCCC4C3)cccc2n1)[C@H]1CCCc2cccnc21` (some centres undefined) are 4 nM, “Active” and 3900 nM.
The corresponding values for `CN1CCC(N(C)c2cccc3nc(CN(C)[C@H]4CCCc5cccnc54)cn23)CC1` are 49 nM, “Active” and 12500 nM.
